For 39 molecules, fluorescence lifetime results are on record in the Deep4Chem optical property database.

The nature of this series: solvent given as SMILES.

On to `CC(C)(C)c1ccc(-c2nc3c4ccc(-c5ccccc5)cc4c4cc(-c5ccccc5)ccc4c3n2-c2ccc(C(C)(C)C)cc2)cc1`, for which the fluorescence lifetime (in ClCCl) was 10.1 ns.
As to `COC(=O)C(Cc1ccc2oc(-c3ccncc3)nc2c1)NC(=O)OC(C)(C)C` (stereo not drawn), the fluorescence lifetime runs as follows: (in CC1CCCCC1) 0.609 ns; (in CC#N) 1.19 ns; (in CO) 2.17 ns.
For the setting “in CC#N”, `CCN(CC)c1ccc2cc3c(cc2c1)C1(c2ccccc2Oc2ccccc21)c1cc2cc(N(CC)CC)ccc2cc1C3=O` had a fluorescence lifetime of 2.5 ns.
Turning to `CCCCn1c(-c2ccc(-c3nnc(-c4cccs4)o3)cc2)nc2c3ccccc3c3ccccc3c21`, under “in ClCCl”, the fluorescence lifetime turned out to be 1.76 ns.
`CC1=[N+]2C(=C(c3ccc(C(=C(c4ccccc4)c4ccccc4)c4ccccc4)cc3)c3ccc(C)n3[B-]2(F)F)C=C1` gave a fluorescence lifetime (in C1CCOC1) of 1.13 ns.
`c1ccc(-c2cc3c(-c4ccccc4)c4cccc5c(-c6ccccc6)cc6c(-c7ccccc7)c7cccc2c7c3c6c54)cc1` yielded a fluorescence lifetime (in ClCCl) of 2.97 ns.
For `COc1ccc(-c2nc3c(c4c2-c2ccccc2CC4)-c2ccccc2CC3)cc1`, the fluorescence lifetime (in CC#N) is 1.44 ns; the fluorescence lifetime (in CCCCCC) turned out to be 0.45 ns; the fluorescence lifetime (in CO) was determined as 0.36 ns; the fluorescence lifetime (in CS(C)=O) is 0.67 ns; the fluorescence lifetime (in ClCCl) stood at 0.25 ns.
Consider `CNc1ccc(/C=C/C#N)cc1`, for which the fluorescence lifetime runs as follows: (in C1CCCCC1) 0.6 ns; (in CC#N) 0.6 ns; (in O) 1.13 ns.
For the molecule `N#Cc1cc(-c2ccc(F)cc2)cnc1O`, the fluorescence lifetime was 5.22 ns (in CC#N), 5.23 ns (in CO) and 5.38 ns (in O).
Where the note is “in CS(C)=O”, `O=c1c2cc(S(=O)(=O)Cl)ccc2[nH]c2ccc(S(=O)(=O)Cl)cc12` came in with a fluorescence lifetime of 10.8 ns.
In the case of `C(=C\c1ccc(N(c2ccccc2)c2ccccc2)cc1)/c1ccc(/C=C/c2ccc(N(c3ccccc3)c3ccccc3)cc2)cc1`, the fluorescence lifetime runs as follows: (in C1CCOC1) 1.25 ns; (in CS(C)=O) 1.53 ns; (in Cc1ccccc1) 0.99 ns.
For the molecule `c1ccc(-c2ccc(-c3ccc(-n4c5ccccc5c5ccccc54)cc3)c3nsnc23)cc1`, the fluorescence lifetime was determined as 7.52 ns (in C1CCOC1), 5.2 ns (in CC(C)=O), 5.87 ns (in CCCCCC) and 7.2 ns (in CCOCC).
In the case of `O=C([O-])c1ccc(C(=O)[O-])c(C2=c3cc4c5c(c3Oc3c2cc2c6c3CCCN6CCC2)CCC[N+]=5CCC4)c1`, the fluorescence lifetime (in CCO) is 5.21 ns and the fluorescence lifetime (in O) was 4.79 ns.
As to `Fc1nc(F)c(F)c(C#Cc2cc3c(cc2C#Cc2c(F)c(F)nc(F)c2F)OC2(CCCCC2)O3)c1F`, the fluorescence lifetime (in CC#N) turned out to be 5.3 ns.
Take `CCCCCCCCCCCCN1C(=O)c2c(c3ccc4cc(-c5ccc(-c6ccccc6)cc5)c(OC)cc4c3c3c2ccc2cc(-c4ccc(-c5ccccc5)cc4)c(OC)cc23)C1=O`: the fluorescence lifetime (in ClCCl) was found to be 6.19 ns.
`CCCCCCCC[n+]1ccc(-c2cc[n+](CCCCCCCC)cc2)cc1` came in with a fluorescence lifetime (in CC#N) of 1 ns.
For `CCN(CC)c1ccc2cc(/C(Cl)=C/C=C/C(=C(C#N)C#N)c3ccc4c(c3)c3ccccc3n4CC)c(=O)oc2c1`, the fluorescence lifetime by setting is: (in CC(C)=O) 0.47 ns; (in CCOC(C)=O) 1.14 ns; (in CN(C)C=O) 0.86 ns; (in CS(C)=O) 0.36 ns; (in Cc1ccccc1) 1.39 ns; (in ClCCl) 1.82 ns.
Molecule `CCC1(CC)c2ccccc2-c2c1c1c(c3c2C(CC)(CC)c2cc(B(c4c(C)cc(C)cc4C)c4c(C)cc(C)cc4C)ccc2-3)C(CC)(CC)c2ccccc2-1` came in with a fluorescence lifetime (in C1CCOC1) of 3.2 ns.
Molecule `CC1=C2C=CC=[N+]2[B-](F)(F)n2cccc21` registered a fluorescence lifetime (in CCCCCC) of 6.62 ns, a fluorescence lifetime (in CO) of 6.69 ns and a fluorescence lifetime (in ClCCl) of 6.16 ns.
Turning to `Nc1ccc2c3c(cccc13)C(=O)c1ccccc1-2`, the fluorescence lifetime runs as follows: (in CC#N) 5.9 ns; (in CC(C)=O) 6.9 ns; (in CC(C)O) 2 ns; (in CCCCOCCCC) 9.2 ns; (in CCOC(C)=O) 7.1 ns; (in CCOCC) 9.5 ns. Further, the fluorescence lifetime by setting is: (in CO) 1.5 ns; (in Cc1ccccc1) 9.2 ns; (in Clc1ccccc1) 8.6 ns; (in N#Cc1ccccc1) 7.5 ns; (in O=C1CCCCC1) 7.8 ns.
Molecule `COc1ccc(-c2c3cc4cc(C)sc4cc3c(-c3ccc(OC)cc3)c3cc4cc(C)sc4cc23)cc1` registered a fluorescence lifetime (in ClCCl) of 9.7 ns.
The same measure, in the same setting: to `CCOC(=O)CCCCCn1c2ccc([N+](=O)[O-])cc2c(=O)c2cc3c(cc21)c(=O)c1cc([N+](=O)[O-])ccc1n3CCCCCC(=O)OCC` belongs 5.1 ns.
For the molecule `CC(=O)c1nc(-c2ccc(N(C)C)cc2)oc1C`, the fluorescence lifetime reads like this: (in CC#N) 1.91 ns; (in CCO) 1.66 ns; (in CCOC(C)=O) 1.87 ns; (in CCOCC) 1.64 ns; (in ClCCl) 3.68 ns.
`Cc1cc(C)c2nc3c(=O)n(C)c(=O)nc-3n(C)c2c1` had a fluorescence lifetime (in CC#N) of 3.9 ns.
Under “in Cc1ccccc1”, `Cc1nnc(-c2cc(-n3c4ccccc4c4ccccc43)c(-n3c4ccccc4c4ccccc43)cc2-c2nnc(C)o2)o1` showed a fluorescence lifetime of 14.5 ns.
Turning to `CCn1c2ccccc2c2cc(-c3cc(-c4ccc5c(c4)c4ccccc4n5CC)nc(S(C)(=O)=O)n3)ccc21`, where the note is “in C1CCOC1”, the fluorescence lifetime stood at 2.31 ns.
Under “in O=P(c1ccccc1)(c1ccccc1)c1ccccc1Oc1ccccc1P(=O)(c1ccccc1)c1ccccc1”, `c1ccc(-c2nc(-c3ccccc3)nc(-c3ccc(-n4c5ccccc5c5c6c(ccc54)C4(c5ccccc5-c5ccccc54)c4ccccc4-6)cc3)n2)cc1` had a fluorescence lifetime of 11.1 ns.
Regarding `CCCCCCN1C(=O)c2cccc3c(-c4ccc(Cl)s4)ccc(c23)C1=O`, the fluorescence lifetime (in ClC(Cl)Cl) turned out to be 0.0093 ns.
Where the note is “in ClCCl”, `CCN(CC)c1ccc2c(-c3ccccc3C(=O)O)c3c([o+]c2c1)/C(=C/C=C/c1ccc(N(C)C)cc1)CCC3` came in with a fluorescence lifetime of 1.03 ns.
`CC1=CC(C)=[N+]2C1=Cc1ccc(CCC(=O)ON3C(=O)CCC3=O)n1[B-]2(F)F` showed a fluorescence lifetime (in CO) of 5.7 ns.
Consider `CCOC(=O)c1ccc2c(c1)[nH]c1c3ccc(C(=O)OCC)cc3[se]c21`, for which, under “in CCCO”, the fluorescence lifetime worked out at 0.15 ns.
As for `CCCCCCn1c2ccccc2c2cc(-c3ccc(-c4cc(-c5ccccn5)nc(-c5ccccn5)c4)cc3)ccc21`, for the setting “in ClCCl”, the fluorescence lifetime came to 1.51 ns.
As to `Fc1c(-n2c3ccccc3c3ccccc32)c(-c2nnc(-c3ccccc3)o2)c(-n2c3ccccc3c3ccccc32)c(-n2c3ccccc3c3ccccc32)c1-n1c2ccccc2c2ccccc21`, where the note is “in Cc1ccccc1”, the fluorescence lifetime is 3.2 ns.
As to `Fc1ccc(N(c2ccc(F)cc2)c2ccc3c4cccc5c(N(c6ccc(F)cc6)c6ccc(F)cc6)ccc(c6cccc2c63)c54)cc1`, the fluorescence lifetime (in ClCCl) came out at 4.26 ns.
For `CCCCCCn1c2cc(C(=O)OCC)ccc2c2c1c1ccc(C(=O)OCC)cc1n2CCCCCC`, where the note is “in CCCO”, the fluorescence lifetime was 6.3 ns.
In the case of `Cn1c2ccccc2c2c1c1ccccc1n2C`, the fluorescence lifetime (in CCCO) was determined as 9 ns.
Molecule `COc1ccccc1C1=[N+]2C(=C(c3ccccc3)c3c4ccccc4c(-c4ccccc4OC)n3[B-]2(F)F)c2ccccc21` yielded a fluorescence lifetime (in ClCCl) of 5.8 ns.
The molecule `CC1=C2C=CC(C)=[N+]2[B-](F)(F)n2cccc21` came in with a fluorescence lifetime (in CCCCCC) of 6.61 ns, a fluorescence lifetime (in CO) of 6.76 ns and a fluorescence lifetime (in ClCCl) of 6.23 ns.
For the setting “in ClC(Cl)Cl”, `Cc1ccc(C(=O)/N=c2\oc3cccc4c5c(-c6ccccc6)oc6cccc(c(c2-c2ccccc2)c34)c65)cc1` gave a fluorescence lifetime of 2.1 ns.
